In US20250064056A1, “CONTACT PHEROMONE-CONTAINING COMPOSITION FOR CONTROLLING THRIPS, KIT COMPOSITION FOR CONTROLLING THRIPS, AND METHOD OF CONTROLLING THRIPS BY USING SAME” (Andong National University Industry-Academic Cooperation …, priority 2023, published 2025):

Legend:
Type in all cases: in vivo
[1] = tested on: Frankliniella occidentalis; assay: Outdoor pest control test on open-field peppers, F. occidentalis; conditions: for Contol efficacy (%) (control value) / Survival (%) Mean / Survival (%) I / Survival (%) II / Survival (%) III: 3 days after treatment, dose a.i. μg/mL: 7MT 100, Spinetoram 12.5; for Survival (%) Mean: mean of 3 replicates; for Survival (%) I: replicate I; for Survival (%) II: replicate II; for Survival (%) III: replicate III
Protocol: (§1) Each treatment was repeated three times using the egg mass method in open pepper production areas located in Songcheon-dong, Andong-si, Gyeongsangbuk-do. Each test group was pepper individuals, and the distance between these individuals was maintained at least 6 m. The amount of chemical agent sprayed on each pepper individual was 30 mL, and the chemical agent was sufficiently sprayed on the entire peppers. […] […] The control group was treated with a distilled chemical agent. The density of thrips was calculated before treatment and on days 1 and 3 after treatment. The classification of these three different thrips was carried out by using the shape identification method presented by Kim et al. (2021).
(§2) For the indoor behavioral experiment, one-way ANOVA analysis was performed using PROC GLM (SAS Institute, 1989). The effectiveness of outdoor pest control was confirmed by calculating the survival rate and performing […] and two-way ANOVA analysis. Comparison between treatment means was determined based on a Type I error probability of 0.05 using an LSD method.
(§3) A test was conducted to check the outdoor control efficiency by adding a contact pheromone causing behavior disruption to Spinetoram having a relatively high control efficiency against thrips. At the end of May 2023, when the test was conducted, Frankliniella occidentalis and Frankliniella intonsa appeared around peppers in open areas in the Andong region. By taking advantage of this situation, treatment with a chemical agent alone and treatment with a chemical agent/contact pheromone mixture were implemented. In the untreated control group, an increase in the density of two thrips was observed. However, in the mixed treatment with Spinetoram, an overall decrease in the density was clearly observed.
(§4) To analyze the results in detail, a control value on the 3rd day of treatment was calculated. […] The average survival rate was lowered in all treatment cases compared to no treatment cases. […] At this time, when the contact pheromone was added, the control value increased for both thrips.

Frankliniella intonsa [2] = assay: Outdoor pest control test on open-field peppers, F. intonsa; conditions: for Contol efficacy (%) (control value) / Survival (%) Mean / Survival (%) I / Survival (%) II / Survival (%) III: 3 days after treatment, dose a.i. μg/mL: 7MT 100, Spinetoram 12.5; for Survival (%) Mean: mean of 3 replicates; for Survival (%) I: replicate I; for Survival (%) II: replicate II; for Survival (%) III: replicate III
Protocol: as §1, §2, §3, §4

Total thrips = assay: Outdoor pest control test on open-field peppers, total thrips; conditions: 3 days after treatment, dose a.i. μg/mL: 7MT 100, Spinetoram 12.5; for Survival (%) Mean: mean of 3 replicates; for Survival (%) I: replicate I; for Survival (%) II: replicate II; for Survival (%) III: replicate III
Protocol: as §1, §2, §3, §4

[3] = tested on: Frankliniella occidentalis; assay: Behavioral test (petri dish, treated vs control kidney bean feed), F. occidentalis; conditions: 10 μL on filter paper, 10 minutes, FIG. 1B
Protocol: (§5) FIGS. 1A, 1B, and 1C show the results of behavioral tests in a container for behavior analysis (A) for two types of thrips (F. occidentalis (B) and F. intonsa (C)), in the container for behavior analysis (A), a […] placed on a filter paper disk was treated with 7-methyltricosane (7TM), the control diet was treated with acid solvent, after 10 minutes, the number of thrips that reached each feed was counted, each treatment was repeated four times by exchanging the positions of the treatment and control groups, asterisk indicates a significant difference with type I error=0.05 (LSD test), and “NS” means no significant difference; and
(§6) A filter paper was unfolded in the behavior test site, and two kidney beans were placed away at a distance of 50 mm as bait. Each of the test substances was applied on top of each feed. In the test substance treatment, 10 μL of 7TM substance was sprayed onto 5 mm circular filter paper. In the case of the control group, the same volume of hexane was sprayed onto a filter paper as a test substance. Each circular filter paper differently treated was placed on any one of the two kidney beans. Next, test individuals were placed in the center 40 mm away from both feed sources. Afterward, the individuals having reached each feed were counted for 10 minutes at room temperature. 10 individuals were used in each test, and each test was repeated 4 times. The positions of the control group and the treatment group were exchanged in each repetition. […]
(§7) For the indoor behavioral experiment, one-way ANOVA analysis was performed using PROC GLM (SAS Institute, 1989). […] Comparison between treatment means was determined based on a Type I error probability of 0.05 using an LSD method.
(§8) To analyze the behavioral responses of thrips with affinity for a contact pheromone, a behavior analysis container (shown in FIG. 1(A)) was manufactured using a petri dish. Thrips were prepared to be near the treated feed, and after inducing the behavioral responses for 10 minutes, some of the thrips staying near the pheromone-treated feed were counted.

Frankliniella intonsa [4] = assay: Behavioral test (petri dish, treated vs control kidney bean feed), F. intonsa; conditions: 10 μL on filter paper, 10 minutes, FIG. 1C
Protocol: as §5, §6, §7, §8

[5] = contact pheromone alone, 3rd day of treatment

Molecule | Contol efficacy (%) (control value) [1] | Survival (%) Mean [1] [%] | Survival (%) I [1] [%] | Survival (%) II [1] [%] | Survival (%) III [1] [%] | Contol efficacy (%) (control value) (Frankliniella intonsa [2]) | Survival (%) Mean (Frankliniella intonsa [2]) [%] | Survival (%) I (Frankliniella intonsa [2]) [%] | Survival (%) II (Frankliniella intonsa [2]) [%] | Survival (%) III (Frankliniella intonsa [2]) [%] | Contol efficacy (%) (control value) (Total thrips) | Survival (%) Mean (Total thrips) [%] | Survival (%) I (Total thrips) [%] | Survival (%) II (Total thrips) [%] | Survival (%) III (Total thrips) [%] | also measured
CCCCCCCCCCCCCCCCC(C)CCCCCC (centres unmarked) [7MT, 7-Methyltricosane] | 31.2 | 358.3 | 500.0 | 300.0 | 275.0 | 32.2 | 115.7 | 133.3 | 150.0 | 63.6 | 12.4 | 222.2 | 300.0 | 233.3 | 133.3 | density of thrips vs no treatment (in words) [1, 5]: it was not; density of thrips vs no treatment (in words) (Frankliniella intonsa [2]; [5]): statistically significantly reduced; behavioral response to pheromone-treated feed ([3]; F. occidentalis adult females): high preference; behavioral response to pheromone-treated feed ([3]; F. occidentalis adult males): avoiding feed sprayed with the contact pheromone; behavioral response to pheromone-treated feed ([3]; F. occidentalis second-instar larvae): did not show specific selection behavior; behavioral response to pheromone-treated feed (Frankliniella intonsa [4]; F. intonsa adult females): high preference; behavioral response to pheromone-treated feed (Frankliniella intonsa [4]; F. intonsa adult males): avoiding feed sprayed with the contact pheromone; behavioral response to pheromone-treated feed (Frankliniella intonsa [4]; F. intonsa second-instar larvae): did not show specific selection behavior
Spinetoram [reference compound] | 71.9 | 146.4 | 150.0 | 175.0 | 114.3 | 80.3 | 33.6 | 40.0 | 22.2 | 38.5 | 76.2 | 60.5 | 73.3 | 46.2 | 61.1 | –
